Test results taken from PubChem BioAssay AID1963827 (Molecular Pharmacology Branch, DTP, NCI, 2024).

Tested on: 994946-033-R-J1-PDC complex spheroid viability
Experiment: Anticancer human tumor 994946-033-R-J1-PDC patient-derived melanoma cell line growth inhibition [POLQ]
Details: for IC50: curve of first compound; for viability, T/C: stronger effect = lower value
Experimental: Multicellular complex tumor spheroid response to Polymerase (POL) inhibitors (novobiocin, ART-558, RP6685) in combination with a variety of drugs and investigational agents in selected tumor cell lines
The POL inhibitors (novobiocin, ART-558, and RP6685) were evaluated both individually and in combination with standard of care and investigational anticancer small molecules within a complex spheroid model of solid tumors. . Complex spheroids include a stromal component modeled by human endothelial cells (HUVEC) and fibroblasts modeled by human mesenchymal stem cells (MSCs). The concentration ranges selected for each drug and investigational agent were based upon clinically achievable concentrations if the clinical Cmax of the agent was known.
Compounds. The drugs and investigational agents: novobiocin (NSC847541), ART-558 (NSC835418), RP-6685 (NSC848927), peposertib (NSC802822), ceralasertib (NSC780249), elimusertib (NSC800525), camonsertib (NSC841442), AZD-1390 (NSC803789), olaparib (NSC753686), talazoparib (NSC767125), rucaparib (NSC756644), sotorasib (NSC818433), MRTX-1133 (NSC836407), SN-38 (NSC673596), topotecan (NSC609699), epotoside (NSC141540), doxorubicin (NSC123127), gemcitabine (NSC613327), 5-fluorouracil (NSC19893), paclitaxel (NSC125973), vemurafenib (NSC761431), MSA-2 (NSC828583), SN-011 (NSC837082), adavosertib (NSC754352), prexasertib (NSC758257), carboplatin (NSC241240) and oxaliplatin (NSC266046), were obtained from the National Cancer Institute (NCI) Developmental Therapeutics Program Chemical Repository (21). The FDA-approved anticancer drug set is available from the Developmental Therapeutics Program at https://dtp.cancer.gov/organization/dscb/obtaining/. […] The stock solutions were prepared in dimethyl sulfoxide (DMSO, Sigma-Aldrich, St. Louis, MO, cat. D2650), except for the platinum compounds which were prepared in saline (Quality Biological, Gaithersburg, MD, cat. 114-055-101), at 800-fold the tested concentration and stored at -70 degrees C prior to their use. All drugs and investigational agents were tested over a range starting from a high concentration at or near the clinical Cmax and decreasing in half-log increments. If the clinical Cmax for an agent had not been determined, the highest concentration tested was 10 microM, except for SN-38, which was tested at a high concentration of 1 microM.
Cell Culture. All cells were maintained in an incubator at 37 degrees C and 5% CO2 with 95% humidity. The PDC lines were cultured according to standard operating procedures established by the NCI PDMR (https://pdmr.cancer.gov). Table 3 of the manuscript, lists the cell lines along with the number of the three cell types plated to form the mct-spheroids and media for tumor cell growth. After thawing, all PDC lines, except 997537-175-T-J1-PDC and 415267-285-R-J2-PDC, were cultured in Matrigel-coated flasks prepared with a working solution of 1X Ham's F-12 nutrient mix, without supplementation (Thermo Fisher Scientific, cat. 11765054), 100 U/mL penicillin-streptomycin (Thermo Fisher Scientific, cat. 15140122), and 2.5% Matrigel (Corning Inc., Corning, NY, cat. 354248) for the first three passages. The two PDC lines 997537-175-T-J1-PDC and 415267-285-R-J2-PDC were cultured on uncoated flasks. The 857933-349-R-J2-PDC line was cultured in 6C/Colon 1B media containing advanced DMEM/F-12 (Thermo Fisher Scientific, cat. 12634028), 10 mM HEPES (Thermo Fisher Scientific, cat. 15630080), 1X GlutaMAX supplement (Thermo Fisher Scientific, cat. 35050061), 0.1 mg/mL primocin (InvivoGen, San Diego, CA, cat. ant-pm-2), 10% defined fetal bovine serum, heat inactivated (HyClone Laboratories Inc., Logan, UT, cat. SH30070.03HI), 50% L-WRN conditioned media (ATCC, cat. CRL-3276), 1.25 mM N-Acetyl-L-cysteine (Sigma-Aldrich, cat. A9165), 10 mM nicotinamide (Sigma-Aldrich, cat. N0636), 1X B-27 supplement (Thermo Fisher Scientific, cat. 17504044), 1X N-2 supplement (Thermo Fisher Scientific, cat. […]

[1] = second compound 0.0316 µM, first compound 0.0316 µM
[2] = second compound 0.0316 µM, first compound 0.1 µM
[3] = second compound 0.0316 µM, first compound 0.316 µM
[4] = second compound 0.0316 µM, first compound 1 µM
[5] = second compound 0.0316 µM, first compound 3.16 µM
[6] = second compound 0.0316 µM, first compound 10 µM
[7] = second compound 0.1 µM, first compound 0.0316 µM
[8] = second compound 0.1 µM, first compound 0.1 µM
[9] = second compound 0.1 µM, first compound 0.316 µM
[10] = second compound 0.1 µM, first compound 1 µM
[11] = second compound 0.1 µM, first compound 3.16 µM
[12] = second compound 0.1 µM, first compound 10 µM
[13] = second compound 0.316 µM, first compound 0.0316 µM
[14] = second compound 0.316 µM, first compound 0.1 µM
[15] = second compound 0.316 µM, first compound 0.316 µM
[16] = second compound 0.316 µM, first compound 1 µM
[17] = second compound 0.316 µM, first compound 3.16 µM
[18] = second compound 0.316 µM, first compound 10 µM
[19] = second compound 1 µM, first compound 0.0316 µM
[20] = second compound 1 µM, first compound 0.1 µM
[21] = second compound 1 µM, first compound 0.316 µM
[22] = second compound 1 µM, first compound 1 µM
[23] = second compound 1 µM, first compound 3.16 µM
[24] = second compound 1 µM, first compound 10 µM
[25] = second compound 3.16 µM, first compound 0.0316 µM
[26] = second compound 3.16 µM, first compound 0.1 µM
[27] = second compound 3.16 µM, first compound 0.316 µM
[28] = second compound 3.16 µM, first compound 1 µM
[29] = second compound 3.16 µM, first compound 3.16 µM
[30] = second compound 3.16 µM, first compound 10 µM
[31] = second compound 10 µM, first compound 0.0316 µM
[32] = second compound 10 µM, first compound 0.1 µM
[33] = second compound 10 µM, first compound 0.316 µM
[34] = second compound 10 µM, first compound 1 µM
[35] = second compound 10 µM, first compound 3.16 µM
[36] = second compound 10 µM, first compound 10 µM
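Also: spheroids exposed to drugs for 7 days.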
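For viability, T/C in this document: 100% = DMSO vehicle treated spheroids.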

`COc1cc2cc(C(=O)CCC(=O)O)sc2cc1OC` + COC1C(OC(N)=O)C(O)C(Oc2ccc3c(O)c(NC(=O)c4ccc(O)c(CC=C(C)C)c4)c(=O)oc3c2C)OC1(C)C showed an IC50 (second compound 0.0316 µM) of over 10000 nM, an IC50 (second compound 0.1 µM) of over 10000 nM and an IC50 (second compound 0.316 µM) of over 10000 nM. The IC50 (second compound 1 µM) was over 10000 nM, the IC50 (second compound 3.16 µM) was over 10000 nM and the IC50 (second compound 10 µM) was over 10000 nM. It also gave a viability, T/C [1] of 91.3%, a viability, T/C [2] of 83% and a viability, T/C [3] of 98.6%. The viability, T/C [4] was 118%, the viability, T/C [5] was 98.8% and the viability, T/C [6] was 96.8%. For the same molecule, the viability, T/C [7] was 89.9%, the viability, T/C [8] was 101% and the viability, T/C [9] was 109%. For the same molecule, the viability, T/C [10] was 116%, the viability, T/C [11] was 86.8% and the viability, T/C [12] was 77.5%. The viability, T/C [13] was 93.5%, the viability, T/C [14] was 102% and the viability, T/C [15] was 84.5%. The viability, T/C [16] was 82.4%, the viability, T/C [17] was 105% and the viability, T/C [18] was 86.4%. It also gave a viability, T/C [19] of 93.4%, a viability, T/C [20] of 90.8% and a viability, T/C [21] of 94.1%. It also gave a viability, T/C [22] of 76.9%, a viability, T/C [23] of 83.3% and a viability, T/C [24] of 100%. It also gave a viability, T/C [25] of 101%, a viability, T/C [26] of 75.9% and a viability, T/C [27] of 106%. The viability, T/C [28] was 82.4%, the viability, T/C [29] was 87.5% and the viability, T/C [30] was 78.6%. The viability, T/C [31] was 90.8%, the viability, T/C [32] was 109% and the viability, T/C [33] was 83.7%. For the same molecule, the viability, T/C [34] was 71.4%, the viability, T/C [35] was 105% and the viability, T/C [36] was 80.6%.

Molecule `CC1COCCN1c1cc(-c2ccnn2C)c2ccnc(-c3ccn[nH]3)c2n1` (centres undefined) + COC1C(OC(N)=O)C(O)C(Oc2ccc3c(O)c(NC(=O)c4ccc(O)c(CC=C(C)C)c4)c(=O)oc3c2C)OC1(C)C has an IC50 (second compound 0.0316 µM) of 48.2 nM, an IC50 (second compound 0.1 µM) of 79.2 nM and an IC50 (second compound 0.316 µM) of 151 nM. It also gave an IC50 (second compound 1 µM) of 77 nM, an IC50 (second compound 3.16 µM) of 57 nM and an IC50 (second compound 10 µM) of 58.4 nM. It also gave a viability, T/C [1] of 58.2%, a viability, T/C [2] of 33.9% and a viability, T/C [3] of 31.6%. For the same molecule, the viability, T/C [4] was 18.4%, the viability, T/C [5] was 20.4% and the viability, T/C [6] was 11.8%. The viability, T/C [7] was 107%, the viability, T/C [8] was 35.2% and the viability, T/C [9] was 21.5%. It also gave a viability, T/C [10] of 30.3%, a viability, T/C [11] of 16.8% and a viability, T/C [12] of 12.3%. For the same molecule, the viability, T/C [13] was 72.3%, the viability, T/C [14] was 60.4% and the viability, T/C [15] was 31.5%. The viability, T/C [16] was 22%, the viability, T/C [17] was 24.5% and the viability, T/C [18] was 13.6%. It also gave a viability, T/C [19] of 100%, a viability, T/C [20] of 34.5% and a viability, T/C [21] of 23.9%. For the same molecule, the viability, T/C [22] was 23.2%, the viability, T/C [23] was 20.8% and the viability, T/C [24] was 12.6%. For the same molecule, the viability, T/C [25] was 76.4%, the viability, T/C [26] was 24.7% and the viability, T/C [27] was 18.2%. It also gave a viability, T/C [28] of 13.4%, a viability, T/C [29] of 14.9% and a viability, T/C [30] of 13.5%. For the same molecule, the viability, T/C [31] was 69.2%, the viability, T/C [32] was 32% and the viability, T/C [33] was 21.2%. For the same molecule, the viability, T/C [34] was 32%, the viability, T/C [35] was 18.5% and the viability, T/C [36] was 10.3%.
